System: 439559-082-T-J2-PDC complex spheroid growth
Experiment: Anticancer human tumor 439559-082-T-J2-PDC patient-derived colon adenocarcinoma cell line growth inhibition [Asc]
Conditions: for IC50: curve of first compound; for viability, T/C: stronger effect = lower value
How it was run: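 Complex solid-tumor spheroids incorporating human endothelial and mesenchymal stem cells received single agents or combinations over half-log dilution ranges anchored to clinical Cmax.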
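Further: spheroids exposed to agents for 7 days starting day 3 after seeding.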
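Wherever viability, T/C is given: percent of DMSO vehicle control viability with 100% = vehicle.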

## C=CC(=O)N1CCN(c2nc(=O)n(-c3c(C)ccnc3C(C)C)c3nc(-c4c(O)cccc4F)c(F)cc23)C(C)C1 (configuration not stated) + CNC(C)C(=O)NC1CN(S(=O)(=O)c2cccc(S(=O)(=O)N3CCC4CCC(C(=O)NC(c5ccccc5)c5ccccc5)N4C(=O)C(NC(=O)C(C)NC)C3)c2)CCC2CCC(C(=O)NC(c3ccccc3)c3ccccc3)N2C1=O
Second compound 0.00316 µM
  IC50: > 10 µM
Second compound 0.01 µM
  IC50: > 10 µM
Second compound 0.0316 µM
  IC50: > 10 µM
Second compound 0.1 µM
  IC50: > 10 µM
Second compound 0.316 µM
  IC50: > 10 µM
Second compound 1 µM
  IC50: > 10 µM
Second compound 0.00316 µM, first compound 0.0316 µM
  viability, T/C: 103%
Second compound 0.00316 µM, first compound 0.1 µM
  viability, T/C: 94.8%
Second compound 0.00316 µM, first compound 0.316 µM
  viability, T/C: 97.2%
Second compound 0.00316 µM, first compound 1 µM
  viability, T/C: 101%
Second compound 0.00316 µM, first compound 3.16 µM
  viability, T/C: 105%
Second compound 0.00316 µM, first compound 10 µM
  viability, T/C: 102%
Second compound 0.01 µM, first compound 0.0316 µM
  viability, T/C: 110%
Second compound 0.01 µM, first compound 0.1 µM
  viability, T/C: 94.9%
Second compound 0.01 µM, first compound 0.316 µM
  viability, T/C: 95.5%
Second compound 0.01 µM, first compound 1 µM
  viability, T/C: 107%
Second compound 0.01 µM, first compound 3.16 µM
  viability, T/C: 111%
Second compound 0.01 µM, first compound 10 µM
  viability, T/C: 103%
Second compound 0.0316 µM, first compound 0.0316 µM
  viability, T/C: 93.6%
Second compound 0.0316 µM, first compound 0.1 µM
  viability, T/C: 95.3%
Second compound 0.0316 µM, first compound 0.316 µM
  viability, T/C: 89.9%
Second compound 0.0316 µM, first compound 1 µM
  viability, T/C: 99%
Second compound 0.0316 µM, first compound 3.16 µM
  viability, T/C: 95%
Second compound 0.0316 µM, first compound 10 µM
  viability, T/C: 99.6%
Second compound 0.1 µM, first compound 0.0316 µM
  viability, T/C: 111%
Second compound 0.1 µM, first compound 0.1 µM
  viability, T/C: 105%
Second compound 0.1 µM, first compound 0.316 µM
  viability, T/C: 100%
Second compound 0.1 µM, first compound 1 µM
  viability, T/C: 93.8%
Second compound 0.1 µM, first compound 3.16 µM
  viability, T/C: 104%
Second compound 0.1 µM, first compound 10 µM
  viability, T/C: 91.3%
Second compound 0.316 µM, first compound 0.0316 µM
  viability, T/C: 105%
Second compound 0.316 µM, first compound 0.1 µM
  viability, T/C: 109%
Second compound 0.316 µM, first compound 0.316 µM
  viability, T/C: 99.9%
Second compound 0.316 µM, first compound 1 µM
  viability, T/C: 105%
Second compound 0.316 µM, first compound 3.16 µM
  viability, T/C: 94%
Second compound 0.316 µM, first compound 10 µM
  viability, T/C: 103%
Second compound 1 µM, first compound 0.0316 µM
  viability, T/C: 81.9%
Second compound 1 µM, first compound 0.1 µM
  viability, T/C: 78%
Second compound 1 µM, first compound 0.316 µM
  viability, T/C: 85.4%
Second compound 1 µM, first compound 1 µM
  viability, T/C: 76.3%
Second compound 1 µM, first compound 3.16 µM
  viability, T/C: 101%
Second compound 1 µM, first compound 10 µM
  viability, T/C: 93.6%

— PubChem BioAssay AID1963423 (Molecular Pharmacology Branch, DTP, NCI, 2024)
